“And” between values parts separate entries of the source, which are not always exact repeats. Equal values may be shown once. Read-outs that look alike come from different tables or passages of the source.
Tests used:
Type in all cases: cell-based
[1] = test system: HIV-1 (IIIB); assay: inhibition of HIV-1(IIIB) (WT) induced syncytium formation in CEM cells
Source text: (§1) CEM cells were obtained from the American Tissue Cell Culture Collection (Rockville, Md.) . HIV-1 (IIIB) was originally obtained from the culture supernatant of persistently HIV-1-infected H9 cells and was provided by R. C. Gallo and M. Popovic (National Cancer Institute, National Institutes of Health, Bethesda, Md.).
(§2) CEM cells were suspended at ≈300,000 cells per ml of culture medium and infected with approximately 100 CCID50 (CCID50 being the 50% cell culture infective dose) of HIV-1(IIIB) (designated as "WT" in Table 3) or one of the HIV-1 RT mutant strains described above. Then 100 μl of the infected cell suspensions was added to 200 μl microtiter plate wells containing 100 μl of appropriate serial (5-fold) dilutions of the test compounds. The inhibitiory effect of the test compounds on HIV-1 induced syncytium formation in CEM cells was examined microscopically on day 4 post infection. The 50% effective concentration (EC50) was defined as the test compound concentration that inhibits syncytium formation in the HIV-1-infected cell cultures by 50%.

[2] = test system: 103-Ala; assay: inhibition of syncytium formation in CEM cells, HIV-1 RT mutant 103-Ala; settings: Human immunodeficiency virus 1, CCRF-CEM, 96 h, read-out: EC50 103-Ala
[3] = test system: HIV-1/184-Ile; assay: inhibition of syncytium formation in CEM cells, HIV-1 RT mutant 184-Ile; settings: Human immunodeficiency virus 1, CCRF-CEM, 96 h, read-out: EC50 184-IIe
Source text: as §1
(§3) The selection and characterization of the HIV-1 RT mutant strains were done as follows: HIV-1/100-Ile ("100-Ile") was selected for resistance against TIBO R82150 as described in Balzarini et al, Virology 192: 246-253 (1993); HIV-1/103-Asn ("103-Asn") was selected for resistance against TIBO R82913 as described in Balzarini et al, Virology 192: 246-253 (1993); HIV-1/106-Ala ("106-Ala") was selected for resistance against nevirapine as described in Balzarini et al, J. Virol. 67: 5353-5359 (1993); HIV-1/Lys-138 ("Lys-138") was selected for resistance against TSAO-m^3T as described in Balzarini et al, Virology 192: 246-253 (1993) and Balzarini et al, Proc. Nat. Acad. Sci. USA 90: 6952-6956 (1993); HIV-1/181-Cys ("181-Cys") was selected for resistance against pyridinone L-697,661 as described in Balzarini et al, Virology 192: 246-253 (1993); and HIV-1/188-His ("188-His") was selected for resistance against HEPT as described in Balzarini et al, Mol. Pharmocol. 44: 694-701 (1993). 188-His was then further converted to HIV-1/188-Leu ("188-Leu") upon further passage in cell culture in the absence of the HEPT. HIV-1/101-Glu ("101-Glu") and HIV-1/190-Glu ("190-Glu") were selected for resistance against the thiocarboxanilide derivative designated as UC38 as described in Balzarini et al, Antiviral Research 27: 219-236 (1995). HIV-1/184-Ile ("184-Ile") was selected for resistance against the combination of 3TC and TSAO-m^3 T as described in Balzarini et al, Molecular Pharm. 49: 882-890 (1996). HIV-1/184-Val ("184-Val") was selected for resistance against 3TC as described in Balzarini et al, Molecular Pharm. 49: 882-890 (1996).
as §2

[4] = test system: HIV-1/188-His; assay: inhibition of syncytium formation in CEM cells, HIV-1 RT mutant 188-His; settings: Human immunodeficiency virus 1, CCRF-CEM, 96 h, read-out: EC50 188-His
Source text: as §1, §3, §2

[5] = test system: 138-Lys; assay: inhibition of syncytium formation in CEM cells, HIV-1 RT mutant 138-Lys; settings: Human immunodeficiency virus 1, CCRF-CEM, 96 h, read-out: EC50 138-Lys
Source text: as §1, §3, §2

[6] = test system: HIV-1/190-Glu; assay: inhibition of syncytium formation in CEM cells, HIV-1 RT mutant 190-Glu; settings: Human immunodeficiency virus 1, CCRF-CEM, 96 h, read-out: EC50 190-Glu
Source text: as §1, §3, §2

[7] = test system: HIV-1/184-Val; assay: inhibition of syncytium formation in CEM cells, HIV-1 RT mutant 184-Val; settings: Human immunodeficiency virus 1, CCRF-CEM, 96 h, read-out: EC50 184-Val
Source text: as §1, §3, §2

[8] = test system: HIV-1/181-Cys; assay: inhibition of syncytium formation in CEM cells, HIV-1 RT mutant 181-Cys; settings: Human immunodeficiency virus 1, CCRF-CEM, 96 h, read-out: EC50 181-Cys
Source text: as §1, §3, §2

[9] = test system: HIV-1/100-Ile; assay: inhibition of syncytium formation in CEM cells, HIV-1 RT mutant 100-Ile; settings: Human immunodeficiency virus 1, CCRF-CEM, 96 h, read-out: EC50 100-Ile
Source text: as §1, §3, §2

[10] = test system: HIV-1/101-Glu; assay: inhibition of syncytium formation in CEM cells, HIV-1 RT mutant 101-Glu; settings: Human immunodeficiency virus 1, CCRF-CEM, 96 h, read-out: EC50 101-Glu
Source text: as §1, §3, §2

[11] = Table 2, day 4 post infection, replicate values, read-out: EC50, Activity Against HIV-1 (IIIB)
[12] = Human immunodeficiency virus 1, IIIB, CCRF-CEM, 96 h, Table 2, day 4 post infection, replicate values, read-out: EC50, Activity Against HIV-1 (IIIB)

SMILES	EC50 [1, 11]	also measured
Cc1occc1C(=S)Nc1ccc(Cl)c(COc2ccccc2C(C)(C)C)c1 [Compound 49]	384 nM and 599 nM and 1130 nM	
Cc1occc1C(=O)Nc1ccc(Cl)c(COc2ccc(F)cc2Cl)c1 [Compound 42]	4660 nM and 18200 nM	
COc1cccc(F)c1OCc1cc(NC(=O)c2ccoc2C)ccc1Cl [Compound 31]	77.8 nM and 124 nM and 213 nM	
Cc1occc1C(=S)Nc1ccc(Cl)c(COc2ccccc2C=NN(C)C)c1 [Compound 57]	214 nM and 76.6 nM and 79.2 nM	
Cc1occc1C(=O)Nc1ccc(Cl)c(COc2ccccc2)c1 [Compound 1]	2380 nM and 1550 nM and 4810 nM	
Cc1occc1C(=S)Nc1ccc(Cl)c(COc2cccc(Cl)c2)c1 [Compound 7]	68.2 nM and 52.5 nM and 432 nM	EC50 [2]: ≥ 2 µg/mL; EC50 [3]: 0.4 µg/mL; EC50 [4]: 0.95 µg/mL; EC50 [5]: 0.33 µg/mL; EC50 [6]: ≥ 10 µg/mL; EC50 [7]: 0.1 µg/mL; EC50 [8]: 0.44 µg/mL; EC50 ([1]; Human immunodeficiency virus 1, IIIB, CCRF-CEM, 96 h, Table 3, HIV-1(IIIB), day 4 post infection, read-out: EC50 WT): 0.09 µg/mL; EC50 [9]: 0.65 µg/mL; EC50 [10]: 2 µg/mL
COc1cccc(F)c1OCc1cc(NC(=O)c2ccoc2C)ccc1Br [Compound 63]	7.55 nM	EC50 [1, 12]: 7.45 nM
Cc1occc1C(=O)Nc1ccc(Cl)c(CSc2ccccc2F)c1 [Compound 72]	14900 nM and 12100 nM	
Cc1occc1C(=S)Nc1ccc(Cl)c(CSc2ccncc2)c1 [Compound 83]	13300 nM and 12100 nM	EC50 [1, 12]: 16500 nM
Cc1occc1C(=O)Nc1ccc(Cl)c(COc2ccc(F)cc2)c1 [Compound 10]	4260 nM	EC50 [1, 12]: 4150 nM
Cc1occc1C(=O)Nc1ccc(Cl)c(COc2cccnc2)c1 [Compound 81]	5500 nM and 3690 nM	
Cc1occc1C(=O)Nc1ccc(Cl)c(COc2ccccc2C#N)c1 [Compound 29]	3480 nM and 3400 nM and 3100 nM and 3760 nM	EC50 [1, 12]: 3390 nM
Cc1occc1C(=S)Nc1ccc(Cl)c(COc2c(F)c(F)cc(F)c2F)c1 [Compound 60]	10.6 nM and 4.62 nM	
Cc1occc1C(=S)Nc1ccc(Cl)c(COc2cccnc2)c1 [Compound 85]	211 nM	EC50 [1, 12]: 151 nM
Cc1occc1C(=S)Nc1ccc(Cl)c(CSc2ccccc2F)c1 [Compound 71]	342 nM and 128 nM and 396 nM	
Cc1occc1C(=O)Nc1ccc(Cl)c(COc2ccccc2C(F)(F)F)c1 [Compound 41]	761 nM and 1110 nM	
Cc1occc1C(=S)Nc1ccc(Cl)c(OCc2ccccc2F)c1 [Compound 70]	9.67 nM	EC50 [1, 12]: 12.2 nM
Cc1occc1C(=O)Nc1ccc(Cl)c(COc2ccccc2[N+](=O)[O-])c1 [Compound 13]	301 nM and 208 nM and 358 nM	
Cc1occc1C(=S)Nc1ccc(Cl)c(OCc2sccc2Br)c1 [Compound 76]	95.2 nM	EC50 [1, 12]: 86.1 nM
COc1ccccc1OCc1cc(NC(=O)c2ccoc2C)ccc1Cl [Compound 12]	488 nM and 379 nM and 899 nM	
Cc1occc1C(=O)Nc1ccc(Cl)c(OCc2sccc2Br)c1 [Compound 75]	588 nM and 1500 nM and 2600 nM	
Cc1occc1C(=S)Nc1ccc(Cl)c(COc2ccccc2)c1 [Compound 2]	228 nM and 161 nM and 98.6 nM and 67.6 nM	
Cc1occc1COc1cc(NC(=O)c2ccoc2C)ccc1Cl [Compound 82]	1460 nM and 3150 nM and 2430 nM	
Cc1occc1C(=S)Nc1ccc(Cl)c(COc2c(F)c(F)c(F)c(F)c2F)c1 [Compound 59]	117 nM	EC50 [1, 12]: 199 nM
Cc1ccccc1OCc1cc(NC(=O)c2ccoc2C)ccc1Cl [Compound 9]	13500 nM and 35000 nM	
COC(=O)c1sccc1OCc1cc(NC(=O)c2ccoc2C)ccc1Cl [Compound 73]	131000 nM and 21200 nM	
Cc1occc1C(=O)Nc1ccc(Cl)c(COc2ccccc2Br)c1 [Compound 35]	2290 nM and 3140 nM and 1230 nM	

SMILES	EC50 [1, 11]	also measured
Cc1occc1C(=O)Nc1ccc(Cl)c(COc2ccccc2N)c1 [Compound 52]	13700 nM and 16200 nM	
Cc1occc1C(=O)Nc1ccc(Cl)c(CSc2ccccn2)c1 [Compound 79]	2830 nM and 2990 nM and 3300 nM and 1650 nM and 614 nM	
Cc1occc1C(=O)Nc1ccc(Cl)c(COc2c(F)cccc2F)c1 [Compound 20]	799 nM	EC50 [1, 12]: 496 nM
Cc1occc1C(=O)Nc1ccc(Br)c(COc2c(F)ccc(F)c2F)c1 [Compound 61]		EC50 [1, 12]: 2.05 nM
Cc1occc1C(=O)Nc1ccc(Cl)c(COc2cccc([N+](=O)[O-])c2)c1 [Compound 26]	4140 nM and 3660 nM	EC50 [1, 12]: 4610 nM
Cc1occc1C(=S)Nc1ccc(Cl)c(COc2ccccc2-c2ccccc2)c1 [Compound 48]	3110 nM and 2750 nM and 5410 nM	
Cc1occc1C(=S)Nc1ccc(Cl)c(CSc2ncccn2)c1 [Compound 78]	302 nM and 696 nM and 375 nM	
COC(=O)c1sccc1OCc1cc(NC(=S)c2ccoc2C)ccc1Cl [Compound 74]	270 nM and 131 nM and 147 nM	
CCCOc1ccccc1OCc1cc(NC(=S)c2ccoc2C)ccc1Cl [Compound 55]	10000 nM and 9000 nM and 3730 nM and 4260 nM	
Cc1occc1C(=O)Nc1ccc(Cl)c(COc2c(F)c(F)cc(F)c2F)c1 [Compound 58]	281 nM	EC50 [1, 12]: 475 nM
Cc1occc1C(=S)Nc1ccc(Cl)c(CS(=O)(=O)c2ccccc2Cl)c1 [Compound 77]	251 nM and 299 nM and 1110 nM	
CC(=O)Oc1ccccc1OCc1cc(NC(=S)c2ccoc2C)ccc1Cl [Compound 33]	1390 nM and 2830 nM and 2670 nM	
COC(=O)c1ccccc1OCc1cc(NC(=S)c2ccoc2C)ccc1Cl [Compound 51]	1000 nM and 226 nM and 915 nM and 568 nM	
COc1cccc(OC)c1OCc1cc(NC(=S)c2ccoc2C)ccc1Cl [Compound 28]	6710 nM and 7560 nM and 19600 nM and 10100 nM and 11000 nM	
Cc1occc1C(=O)Nc1ccc(Br)c(COc2ccccc2C(F)(F)F)c1 [Compound 62]	195 nM and 817 nM and 552 nM and 793 nM and 554 nM	
Cc1occc1C(=O)Nc1ccc(Cl)c(OCc2ccccc2F)c1 [Compound 69]	359 nM and 317 nM and 244 nM	
CCON=Cc1ccccc1OCc1cc(NC(=S)c2ccoc2C)ccc1Cl [Compound 50]	1070 nM	
CCOc1ccccc1OCc1cc(NC(=S)c2ccoc2C)ccc1Cl [Compound 36]	377 nM and 124 nM and 788 nM	
Cc1occc1C(=O)Nc1ccc(Cl)c(COc2c(F)ccc(F)c2F)c1 [Compound 39]	102 nM and 50.7 nM and 113 nM	
Cc1occc1COc1cc(NC(=S)c2ccoc2C)ccc1Cl [Compound 84]	66.1 nM and 255 nM	
CC(=NN(C)C)c1ccccc1OCc1cc(NC(=O)c2ccoc2C)ccc1Cl [Compound 56]	2910 nM and 3580 nM	EC50 [1, 12]: 2230 nM
CC(=O)c1ccccc1OCc1cc(NC(=S)c2ccoc2C)ccc1Cl [Compound 54]	6670 nM and 15300 nM	
CCc1ccccc1OCc1cc(NC(=O)c2ccoc2C)ccc1Cl [Compound 38]	2880 nM and 1450 nM	
Cc1occc1C(=S)Nc1ccc(Br)c(COc2ccccc2C(F)(F)F)c1 [Compound 65]	0.281 nM	EC50 [1, 12]: 0.29 nM
Cc1occc1C(=S)Nc1ccc(Cl)c(CSc2ccccn2)c1 [Compound 80]	150 nM	EC50 [1, 12]: 218 nM
Cc1occc1C(=O)Nc1ccc(Cl)c(COc2ccccc2F)c1 [Compound 14]	771 nM and 395 nM and 255 nM	
